The results in this text go back to ChEMBL document CHEMBL1201862, “PubChem BioAssay data set” (2004).

Some test systems named below: 786-0; DU-145; SK-MEL-5; PC-3; UACC-257; MDA-N; OVCAR-5; SNB-75; MOLT-4; KM12; Malme-3M; CAKI-1; SF-268; UACC-62; HCC 2998; COLO 205; BT-549; HL-60; MCF7.
Test in all cases: growth of human tumour cells (NCI), 48 h

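Grown in 96-well plates, cells were treated for 48 hours with each compound at five concentrations. Insufficient inhibition: endpoint recorded as highest concentration tested. Here, GI50 denotes the concentration required for 50% inhibition of growth.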 Calls of active or inactive are those of the source. Cut-off read from the data, not from the text of the source: active = GI50 up to about 1.1 µM and inactive = higher.

With `O=C1CCCCC/C1=C\c1cccc(Cl)c1`, the GI50 in the experiment with 786-0 was 41.1 µM (inactive); with DU-145, > 100 µM (inactive); in the experiment on SK-MEL-5 it was 25.4 µM (inactive); in the experiment with PC-3 it was 22.5 µM (inactive); in the experiment with UACC-257, 42.1 µM (inactive); with MDA-N, 45.4 µM (inactive). For the same compound, the GI50 in the experiment with OVCAR-5 was > 100 µM (inactive); with SNB-75 it was 48.5 µM (inactive); with MOLT-4, 27.4 µM (inactive); in the experiment on KM12 it was 30.8 µM (inactive); in the experiment on Malme-3M, 42.9 µM (inactive); in the experiment with CAKI-1, 72.6 µM (inactive). For the same compound, the GI50 in the experiment with SF-268 is 22 µM (inactive); in the experiment with UACC-62, 45.9 µM (inactive); with HCC 2998, 41.7 µM (inactive); in the experiment on COLO 205, 35.3 µM (inactive); with BT-549, 43.2 µM (inactive).

Consider `COc1cccc(CCCNC(=O)Cc2cc(OC)c(OC)cc2CO)c1`, for which the GI50 was > 100 µM (inactive) in the experiment on 786-0; > 100 µM (inactive) in the experiment on DU-145; 83.2 µM (inactive) in the experiment on SK-MEL-5; > 100 µM (inactive) with PC-3; > 100 µM (inactive) with UACC-257; > 100 µM (inactive) in the experiment with MDA-N. The GI50 in the experiment on OVCAR-5, in the experiment with SNB-75, in the experiment with HL-60, in the experiment on MOLT-4, in the experiment with KM12 and with Malme-3M was > 100 µM (inactive) each time. Also, the GI50 with CAKI-1, in the experiment on UACC-62, in the experiment on HCC 2998, in the experiment on COLO 205 and in the experiment with BT-549 was > 100 µM (inactive) throughout.

`CC1=C(C)SC(=C2Sc3[n-]c(=O)[nH]c(=O)c3S2)S1.CCCC[N+](CCCC)(CCCC)CCCC`: the GI50 with 786-0 was > 100 µM (inactive); in the experiment with DU-145 it was > 100 µM (inactive); in the experiment on SK-MEL-5, 28.5 µM (inactive); in the experiment on PC-3 it was > 100 µM (inactive); in the experiment with UACC-257, > 100 µM (inactive); with OVCAR-5, > 100 µM (inactive). The GI50 in the experiment on SNB-75 was > 100 µM (inactive); in the experiment on MCF7, 42.5 µM (inactive); in the experiment with HL-60, < 0.01 µM (active); in the experiment with MOLT-4, 95.1 µM (inactive); in the experiment with KM12, 98.2 µM (inactive); in the experiment with Malme-3M it was 20.6 µM (inactive). Besides, the GI50 with CAKI-1 was > 100 µM (inactive); in the experiment with SF-268, > 100 µM (inactive); with UACC-62, 27.2 µM (inactive); in the experiment with HCC 2998, > 100 µM (inactive); in the experiment on COLO 205, > 100 µM (inactive); in the experiment on BT-549 it was > 100 µM (inactive).

Take `COc1ccc(CCc2ccc(O)c(C(=O)O)c2)cc1OC`: the GI50 is > 100 µM (inactive) in the experiment on 786-0; > 100 µM (inactive) in the experiment with DU-145; 98.9 µM (inactive) in the experiment with SK-MEL-5; > 100 µM (inactive) in the experiment with PC-3; > 100 µM (inactive) in the experiment on UACC-257; > 100 µM (inactive) in the experiment with MDA-N. The GI50 in the experiment with OVCAR-5 is > 100 µM (inactive); in the experiment with SNB-75, 79.6 µM (inactive); in the experiment on MCF7 it was > 100 µM (inactive); in the experiment with HL-60 it was > 100 µM (inactive); with MOLT-4, 59.2 µM (inactive); with KM12 it was > 100 µM (inactive). Also, the GI50 was > 100 µM (inactive) in the experiment with Malme-3M; 32.4 µM (inactive) in the experiment with CAKI-1; > 100 µM (inactive) with SF-268; > 100 µM (inactive) in the experiment with UACC-62; > 100 µM (inactive) in the experiment with HCC 2998; > 100 µM (inactive) in the experiment on COLO 205.

For `O=C1Nc2ccccc2C1S(=O)(=O)c1ccccc1` (centres undefined), the GI50 in the experiment on 786-0, in the experiment on DU-145, in the experiment with SK-MEL-5, in the experiment on PC-3, in the experiment on UACC-257 and in the experiment on MDA-N was > 100 µM (inactive) in each case. In addition, the GI50 in the experiment on OVCAR-5, with SNB-75, in the experiment on MOLT-4, in the experiment on KM12, in the experiment on Malme-3M and in the experiment with CAKI-1 was > 100 µM (inactive) throughout. The GI50 in the experiment with SF-268, in the experiment on UACC-62, with HCC 2998, with COLO 205 and in the experiment on BT-549 was > 100 µM (inactive) in each case.

With `CN(N=O)N1C(=O)SCC(c2ccccc2)(c2ccccc2)C1=O`, the GI50 in the experiment with 786-0 was 46.6 µM (inactive); with DU-145, 91 µM (inactive); in the experiment on SK-MEL-5 it was 37.8 µM (inactive); with PC-3, 42.4 µM (inactive); with UACC-257, 64.3 µM (inactive); in the experiment on MDA-N it was 28.4 µM (inactive). Besides, the GI50 was > 100 µM (inactive) with OVCAR-5; 25.6 µM (inactive) in the experiment on SNB-75; 20.9 µM (inactive) in the experiment on MCF7; 46.1 µM (inactive) with HL-60; 61.8 µM (inactive) with MOLT-4; 30.1 µM (inactive) with KM12. The GI50 is 34.1 µM (inactive) with Malme-3M; 46.3 µM (inactive) in the experiment with CAKI-1; 32.1 µM (inactive) in the experiment on SF-268; 37.8 µM (inactive) in the experiment with UACC-62; 89.1 µM (inactive) in the experiment with HCC 2998; 25.3 µM (inactive) in the experiment with COLO 205.

Turning to `CC(C)(C)[C@H]1NC(=O)CN1C(=O)OCc1ccccc1`, the GI50 in the experiment on 786-0 is > 100 µM (inactive); with DU-145 it was > 100 µM (inactive); in the experiment on SK-MEL-5, 85.9 µM (inactive); in the experiment on PC-3 it was 36.7 µM (inactive); in the experiment with UACC-257, 98.9 µM (inactive); with OVCAR-5, > 100 µM (inactive). The GI50 with SNB-75, in the experiment with MCF7, with HL-60, in the experiment with MOLT-4, with KM12 and in the experiment with Malme-3M was > 100 µM (inactive) throughout. The GI50 in the experiment with SF-268 is 8.07 µM (inactive); with UACC-62, > 100 µM (inactive); in the experiment on HCC 2998 it was > 100 µM (inactive); in the experiment on COLO 205, > 100 µM (inactive); with BT-549 it was > 100 µM (inactive).

Turning to `O=C1NC(c2cccc3ccccc23)Nc2ccccc21` (centres undefined), the GI50 was 0.0593 µM (active) in the experiment with 786-0; 0.064 µM (active) in the experiment with DU-145; < 0.0202 µM (active) with SK-MEL-5; 0.0423 µM (active) in the experiment on PC-3; 0.0465 µM (active) in the experiment on UACC-257; 0.133 µM (active) in the experiment with OVCAR-5. In addition, the GI50 is 0.0111 µM (active) in the experiment on SNB-75; < 0.0171 µM (active) in the experiment on MCF7; 0.0528 µM (active) in the experiment on MOLT-4; 0.0399 µM (active) with KM12; 0.0463 µM (active) in the experiment with Malme-3M; < 0.0409 µM (active) in the experiment on CAKI-1. Besides, the GI50 in the experiment on SF-268 is 0.832 µM (active); in the experiment with UACC-62 it was < 0.0184 µM (active); in the experiment with HCC 2998 it was 0.0736 µM (active); with COLO 205, 0.0458 µM (active); in the experiment on BT-549 it was 0.454 µM (active).

Regarding `COCC1OC(N2C(=O)NC(=O)[C@@H]3C=C4CCCCC4=C[C@@H]32)C(OC)C1OC` (some centres undefined), the GI50 in the experiment on 786-0, with DU-145, in the experiment on PC-3, with UACC-257, in the experiment with MDA-N and with OVCAR-5 was > 100 µM (inactive) throughout. The GI50 was > 100 µM (inactive) with SNB-75; > 100 µM (inactive) in the experiment with MCF7; 51.6 µM (inactive) with HL-60; > 100 µM (inactive) with MOLT-4; > 100 µM (inactive) in the experiment on KM12; > 100 µM (inactive) in the experiment on Malme-3M. Also, the GI50 in the experiment on SF-268, in the experiment with UACC-62 and in the experiment with BT-549 was > 100 µM (inactive) each time.

On to `Clc1ccc(/N=C/c2cc3cc(Br)ccc3nc2Cl)cc1`, for which the GI50 was > 50 µM (inactive) in the experiment with 786-0; > 50 µM (inactive) with DU-145; 6.59 µM (inactive) in the experiment on SK-MEL-5; 15.7 µM (inactive) with PC-3; 34.1 µM (inactive) in the experiment on UACC-257; 11.2 µM (inactive) in the experiment with MDA-N. Besides, the GI50 is > 50 µM (inactive) in the experiment with OVCAR-5; > 50 µM (inactive) in the experiment with SNB-75; 9.82 µM (inactive) in the experiment with HL-60; 13.5 µM (inactive) in the experiment on MOLT-4; 20 µM (inactive) in the experiment with KM12; > 50 µM (inactive) in the experiment on Malme-3M. The GI50 with CAKI-1 is 1.95 µM (inactive); in the experiment on SF-268 it was 17 µM (inactive); in the experiment with HCC 2998 it was 32.3 µM (inactive); in the experiment on COLO 205 it was > 50 µM (inactive); with BT-549 it was > 50 µM (inactive).

As to `NS(=O)(=O)c1cc2c(cc1Cl)N=C(CCC(=O)O)NS2(=O)=O`, the GI50 with 786-0, with DU-145, in the experiment on SK-MEL-5, with PC-3, in the experiment on UACC-257 and with MDA-N was > 100 µM (inactive) throughout. Further, the GI50 in the experiment on OVCAR-5, in the experiment on SNB-75, in the experiment on MCF7, in the experiment on KM12, in the experiment with Malme-3M and with CAKI-1 was > 100 µM (inactive) throughout. Further, the GI50 with SF-268, with UACC-62, in the experiment on COLO 205 and in the experiment on BT-549 was > 100 µM (inactive) throughout.

Regarding `CC(C)(C)c1cc(C(=O)Nc2cc(Br)c(Br)cc2S(N)(=O)=O)cc(C(C)(C)C)c1O`, the GI50 in the experiment on 786-0 is 11 µM (inactive); in the experiment on DU-145, 15.3 µM (inactive); in the experiment on SK-MEL-5, 12.4 µM (inactive); in the experiment on PC-3, 10.7 µM (inactive); in the experiment on UACC-257 it was 17.9 µM (inactive); with OVCAR-5, 12.4 µM (inactive). The GI50 in the experiment with SNB-75 is 9.31 µM (inactive); with MCF7, 5.37 µM (inactive); in the experiment on MOLT-4, 4.39 µM (inactive); with KM12, 5.77 µM (inactive); in the experiment with Malme-3M, 13.5 µM (inactive); in the experiment on CAKI-1, 9.93 µM (inactive). Further, the GI50 in the experiment with SF-268 was 13.3 µM (inactive); with UACC-62 it was 6.08 µM (inactive); in the experiment on HCC 2998, 5.07 µM (inactive); with COLO 205, 5.08 µM (inactive); in the experiment with BT-549, 12.2 µM (inactive).
